Experimental data taken from US20120135002A1, “Compounds and Methods for the Treatment of Cancer” (priority 2009, published 2012).

Key:
HL60 = assay: Transcriptome (microarray) analysis of treated HL60 cells; assay type: cell-based, human; conditions: for number of genes modulated by the three different agents: HL60 cell line, genes affected by DFO, DFX and mAb A24 together
AML cells lines = assay: CD14 and CD11b monocytic marker expression in AML cell lines; assay type: cell-based
Procedure: Peripheral blood cells from AML patients and healthy donors was analyzed after obtaining their written informed consent (please refer to supplementary table 2 for additional information). Peripheral blood was collected at the initial diagnosis previously to treatment administration. Mononuclear cells were separated by Ficoll-hypaque (PAA laboratories) density centrifugation and resuspended in IMDM medium (Invitrogen) supplemented with 15% fetal calf serum (FCS) (Hyclone), 100 ng/ml Stem Cell Factor (SCF), 10 ng/ml Interleukin 3 (IL-3) and 25 ng/ml FLT3-L (all purchased from R&D Systems). HL60 and U937 cell lines were a kind gift from J. M. Cayuela (Saint-Louis Hospital, Paris). Cells were cultured in RPMI-1640 medium (Invitrogen) supplemented with 5% FCS and antibiotics.
The ability of iron deprivation to override blockade of AML cells differentiation was tested. In AML cells lines, monocytic markers CD14 and CD11b (which are induced by the vitamin D3 (VD), a monocytic differentiating agent) were induced by iron deprivation by A24 mAb, DFO and DFX. Induction of cell surface markers was accompanied by characteristic cytological modifications of monocytes. Iron deprivation induced cytoplasm enlargement, loss of cytoplasm basophilia and azurophilic granules. […]

c-Jun, c-Fos = assay: c-Jun and c-Fos expression in HL60 cells; assay type: cell-based; conditions: VD 250 nM, A24 10 μg/ml, DFO 5 μM, DFX 3 μM
Procedure: FIG. 4 depicts the change in c-Jun expression following treatment of HL60 cells with vitamin D3 (VD, 250 nM), A24 (A24, 10 μg/ml), deferoxamine (DFO, 5 μM) or deferasirox (DFX, 3 μM).
FIG. 5 depicts the c-Fos and c-Jun mRNA levels (evaluated by quantitative RT-PCR and normalized to GAPDH mRNA levels) in HL60 cells treated for 48 h with A24 (A24, 10 μg/ml); deferoxamine (DFO, 5 μM); or deferasirox (DFX, 3 μM) (mean±SEM, n=4).
Total RNA was extracted using Nucleospin RNA II (Macherey-Nagel). Following DNAse treatment, first-strand cDNA was synthesized using a SuperScript II reverse transcriptase (Invitrogen). Quantitative real-time PCR was performed with a Chromo-IV PCR System (MJ Research) and PCR products were quantified using SybrGreen Technology (Jumpstart mastermix, Sigma Aldrich). Results of real-time quantitative PCR were interpreted using the delta-delta Ct method (Livak et al. (2001) Methods 25:402-408). The complete list of primer sequences used is available in supplementary data section, table 4.
By comparing (with a non-supervised analysis) the pattern of genes induced by VD and iron-chelating agents, a high similarity was found among modulated genes. Thirty of the 105 genes modulated by iron deprivation were shared with VD modified genes. This finding underscores the potential similarities between both differentiation approaches. […]

[1] = system: squamous cell carcinoma and prostatic adenocarcinoma; conditions: in vitro; cited from earlier work

O=C(O)c1ccc(-n2nc(-c3ccccc3O)nc2-c2ccccc2O)cc1 [DFX, 4-[3,5-bis(2-hydroxyphenyl)-[1,2,4]triazol-1-yl]benzoic acid]
number of genes modulated by the three different agents (HL60): 105 | monocytic markers CD14 and CD11b (AML cells lines): induced

CC(=O)N(O)CCCCCNC(=O)CCC(=O)N(O)CCCCCNC(=O)CCC(=O)N(O)CCCCCN [DFO]
number of genes modulated by the three different agents (HL60): 105

C=C1CC[C@H](O)C/C1=C/C=C1\CCC[C@]2(C)[C@@H]([C@H](C)CCCC(C)C)CC[C@@H]12 [VD, cholecalciferol]
markers of granulocyte differentiation / neutrophils (ELA2, PRTN3, CLC, AZU) (HL60; HL60, gene expression): down-regulated | markers of monocytes or activated macrophages (SERPINB8, ITGB2, TREML2, ITGAM) (HL60; HL60, gene expression): up-regulated | similarity of genes targeted by iron deprivation with VD (HL60; genome screening): 30% | genes of the 105 modulated by iron deprivation shared with VD modified genes (HL60; non-supervised analysis): Thirty | monocytic markers CD14 and CD11b (AML cells lines): induced | c-Jun gene expression (c-Jun, c-Fos): induced

C=C1/C(=C\C=C2/CCC[C@]3(C)[C@@H]([C@H](C)CCCC(C)(C)O)CC[C@@H]23)C[C@@H](O)C[C@@H]1O [calcitriol, 1α,25-dihydroxycholecalciferol D3]
antiproliferative activity [1]: exhibits antiproliferative activity
